Test results from paper PMC3288262 (Bioorganic & medicinal chemistry letters, 2012).
Several values for one entry are separate records, joined by “and”; a condition that tells them apart may be missing. Identical values can stand only once. Marks after values point to notes of the source that are not given here. Starred links: 1 amine or outer side, 2 acyl side, 3 side chain; linkers in the order of their positions; H or OH if unused. Non-standard residues stand in square brackets, D forms with d. Residues, ends and D or L forms follow the SMILES beside them. Bcp = 4'-[N-((4'-phenyl)phenethyl)carboxamido]phenylalanine, O=C(NCCc1ccc(-c2ccccc2)cc1)c1ccc(C[C@H](N[*:1])C(=O)[*:2])cc1; Tic = O=C(O)[C@@H]1Cc2ccccc2CN1

What was measured:
δ opioid receptors = δ opioid receptors (Rattus norvegicus, UniProt P33533); settings: ref [10], cited from earlier work
Sequence of δ opioid receptors (P33533 whole entry): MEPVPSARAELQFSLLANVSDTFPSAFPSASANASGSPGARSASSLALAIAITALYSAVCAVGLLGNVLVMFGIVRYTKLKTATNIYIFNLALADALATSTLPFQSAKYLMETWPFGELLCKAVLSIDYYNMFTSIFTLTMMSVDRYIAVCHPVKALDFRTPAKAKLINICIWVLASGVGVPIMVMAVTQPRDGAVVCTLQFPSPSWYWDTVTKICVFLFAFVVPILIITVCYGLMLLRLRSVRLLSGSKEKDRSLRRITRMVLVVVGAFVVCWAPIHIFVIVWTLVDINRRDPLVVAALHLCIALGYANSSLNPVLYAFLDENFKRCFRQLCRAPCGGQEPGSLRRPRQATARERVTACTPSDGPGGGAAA

[1] = target: δ opioid receptor (mouse vas deferens, δ receptor-representative) (Mus musculus, UniProt P32300); settings: read-out: MVD IC50; agonist potency; ref [10]; cited from earlier work
Sequence of δ opioid receptor (mouse vas deferens, δ receptor-representative) (P32300 whole entry): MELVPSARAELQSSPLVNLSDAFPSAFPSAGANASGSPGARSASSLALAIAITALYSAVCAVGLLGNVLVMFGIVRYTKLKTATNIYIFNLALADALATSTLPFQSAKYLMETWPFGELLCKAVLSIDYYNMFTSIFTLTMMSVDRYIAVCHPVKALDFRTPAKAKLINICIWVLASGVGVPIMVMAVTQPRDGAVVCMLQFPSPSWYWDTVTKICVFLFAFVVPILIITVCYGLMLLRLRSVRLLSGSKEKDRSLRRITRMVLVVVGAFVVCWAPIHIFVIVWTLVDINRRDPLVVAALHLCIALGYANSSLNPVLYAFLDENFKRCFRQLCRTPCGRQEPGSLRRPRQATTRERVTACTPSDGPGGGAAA

μ opioid receptors = μ opioid receptors (Rattus norvegicus, UniProt P33535); settings: read-out: Ki^μ; [3H]DAMGO displacement, rat brain membranes; ref [10]; cited from earlier work
Sequence of μ opioid receptors (P33535 whole entry): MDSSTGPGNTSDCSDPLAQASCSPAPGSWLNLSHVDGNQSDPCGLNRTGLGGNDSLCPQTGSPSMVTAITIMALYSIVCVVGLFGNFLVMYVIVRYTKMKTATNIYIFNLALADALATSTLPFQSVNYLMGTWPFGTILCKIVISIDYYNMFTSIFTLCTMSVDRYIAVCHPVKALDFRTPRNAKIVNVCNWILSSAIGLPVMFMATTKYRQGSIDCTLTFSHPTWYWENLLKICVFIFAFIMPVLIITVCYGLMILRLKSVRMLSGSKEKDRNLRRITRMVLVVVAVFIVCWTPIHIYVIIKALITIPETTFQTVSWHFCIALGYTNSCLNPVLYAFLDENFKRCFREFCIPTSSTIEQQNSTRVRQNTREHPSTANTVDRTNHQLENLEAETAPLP

human δ opioid receptor = human δ opioid receptor (Homo sapiens, UniProt P41143); assay type: biochemical; settings: mean of 3–6 determinations ± SEM; for [35S]GTPγS binding ED50: HEK293 cells, human δ opioid receptor
Sequence of human δ opioid receptor (P41143 whole entry): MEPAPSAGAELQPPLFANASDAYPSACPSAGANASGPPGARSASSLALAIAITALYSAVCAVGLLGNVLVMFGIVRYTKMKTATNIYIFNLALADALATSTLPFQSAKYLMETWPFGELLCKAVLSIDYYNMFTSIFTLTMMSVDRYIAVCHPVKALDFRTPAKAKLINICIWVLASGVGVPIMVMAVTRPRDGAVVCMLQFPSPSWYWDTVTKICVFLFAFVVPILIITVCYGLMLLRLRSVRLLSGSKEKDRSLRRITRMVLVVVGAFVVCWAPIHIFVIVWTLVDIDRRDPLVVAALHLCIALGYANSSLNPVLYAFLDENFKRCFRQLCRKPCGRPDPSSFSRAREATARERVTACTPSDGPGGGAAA

[2] = tested on: μ opioid receptor (guinea pig ileum); assay: guinea pig ileum; settings: read-out: GPI IC50; agonist potency; P.A. = partial agonist
[3] = tested on: μ opioid receptor (guinea pig ileum); settings: partial agonist, IC40 given in IC50 column; ref [10]; cited from earlier work

Compound	Ki (δ opioid receptors; read-out: Ki^δ, [3H]DSLET displacement, rat brain membranes)	IC50 [1]	Ki (μ opioid receptors)	[35S]GTPγS binding ED50 (human δ opioid receptor)	IC50 [2]	Ki^μ/Ki^δ (δ opioid receptors; δ vs. μ receptor binding selectivity)	[35S]GTPγS binding efficacy e (human δ opioid receptor; efficacy relative to DPDPE (e = 1.0))	GPI IC40 [3]
H-Bcp-Tic-Phe-Phe-OH (H-[Bcp][Tic]FF-OH) [Compound 13]	0.605 ± 0.058 nM	3.42 ± 0.36 nM	87.7 ± 8 nM	–	–	–	–	–
N[C@@H](Cc1ccc(O)cc1)C(=O)N1Cc2ccccc2C[C@H]1C(=O)N[C@@H](Cc1ccccc1)C(=O)N[C@@H](Cc1ccccc1)C(=O)O [TIPP, H-Tyr-Tic-Phe-Phe-OH, reference compound] (H-Y[Tic]FF-OH)	–	–	–	antagonist	> 10000 nM	–	–	–
H-Bcp-Tic-Phe-Phe-OH [Compound 13]	–	–	–	0.413 ± 0.015 nM	–	145	0.678 and 0.678 ± 0.076	223 ± 37 (IC40) ^d nM
